From patent US20230149419A1, “COMPOSITION FOR PREVENTING OR TREATING NEUROINFLAMMATORY DISEASES, COMPRISING CHLORPROMAZINE” (GliaCellTech Inc., priority 2020, published 2023)

What was measured:
[1] = system: primary microglia from Psen2^N141I/+ mice with Alzheimer's disease; assay: LPS-induced inflammatory cytokine secretion in primary microglia (ELISA), Psen2 mutation; assay type: cell-based, mouse
Experimental: (§1) Primary microglia were obtained from wild-type mice and Psen2^N141I/+ mice with Alzheimer's disease. Specifically, brains were excised from neonatal mice 1 to 3 days old and cells were obtained therefrom. The cells were cultured in Dulbecco's modified Eagle's medium (DMEM, Corning) supplemented with 10% heat-inactivated fetal bovine serum (HI-FBS, Hyclone) and 1% penicillin-streptomycin (Hyclone). Primary microglia were isolated in vitro by tapping after 12 days of culturing. Purity of primary microglia was estimated by immunostaining with an antibody against Iba-1, which is a microglial marker.
(§2) In this regard, the primary microglia were preincubated with or without 0.5 μM chlorpromazine for 30 min before LPS treatment. Anti-inflammatory effects were compared and analyzed between the test groups.

[2] = system: primary microglia from Psen2 mutation mouse model of Alzheimer's disease; assay: IL-1β secretion after LPS and inflammasome activation (nigericin/ATP), Psen2 mutation microglia; assay type: cell-based; conditions: for IL-1β secreted: chlorpromazine 30 min, LPS 1 μg/mL 3 h
Experimental: as §1
(§3) IL-1β is a cytokine released from an activated inflammasome complex in microglia. For secretion of the cytokine, additional treatment with a drug for inducing activation of the inflammasome complex is necessary following LPS-induced inflammation. […] Application of the test groups thus obtained could divide groups 5 to 8 of Example 5-2 into 10 subgroups according to treatment with nigericin and ATP.

[3] = system: primary microglia from Psen2^N141I/+ mice with Alzheimer's disease; assay: LPS-induced cytokine mRNA expression in primary microglia (qRT-PCR), Psen2 mutation; assay type: cell-based, mouse
Experimental: as §1, §2
The culture of each group was measured for microglial mRNA expression levels of the target cytokines by qRT-PCR (quantitative RT-PCR). Specifically, RNA was isolated from the microglia and cDNA was synthesized using an ImProm-II Reverse Transcriptase kit (Promega). PCR primers were commercially available (Cosmo Genetech). qRT-PCR was performed using Taq Polymerase (Invitrogen) and mouse cDNA-specific primers listed in Table 6, below. In addition, TOPreal™ qPCR 2×PreMIX (SYBR Green with low ROX) (Enzynomics) was used. Amplification (50 cycles) was performed for 50 cycles with all primers in a CFX96 Real-Time System (Bio-Rad). Actb was used as the reference genes for normalization.

[4] = system: elderly with schizophrenia; conditions: taken for a long time at the current market dose; cited from earlier work
[5] = system: primary microglia from Psen2 mutation (KI/+) mouse model of Alzheimer's disease; assay: fAβ42-induced cytokine secretion in primary microglia (ELISA), Psen2 mutation; assay type: cell-based
Experimental: as §1
(§4) Specifically, FITC-conjugated amyloid beta 1-42 was prepared according to the follow reference (Cho, M.-H. et al. “Autophagy in microglia degrades extracellular β-amyloid fibrils and regulates the NLRP3 inflammasome.” Autophagy 10, 1761-1775 (2014)).
(§5) The primary cultures of microglia prepared in Example 5-1 from the Psen2 mutation (KI/+) mouse model of Alzheimer's disease and the wild-type (WT) mice were directly treated with 4 μM of the fibrilized amyloid beta 1-42 (fAβ42), followed by incubation with or without 0.5 μM chlorpromazine.

[6] = system: Psen2^N141I/+ Alzheimer's disease mice; assay: Serum cytokine levels after low-concentration LPS injection, Psen2 mutation mice
Experimental: (§6) To investigate neuroinflammation at various concentrations of LPS, blood was extracted from cheek veins in the wild-type mice in group 2 and the mouse model of Alzheimer's disease in group 4 20 hours after the injection of LPS. The sera obtained by centrifugation were quantitatively analyzed for IL-6, TNFα, CCL2, CXCL1, and CCL5 by using ELISA kit (R&D Systems) according to the manufacturer's instruction. In addition, the same procedure was conducted for the wild-type mice without LPS injection of group 1 and the Psen2^N141I mutation mouse model of Alzheimer's disease of group 3 to obtain sera which were then analyzed for the proteins by using the ELISA kit according to the manufacturer's instruction.
(§7) The wild-type mice and the Psen2 mutation mouse model of Alzheimer's disease obtained in Example 1 were intraperitoneally injected with chlorpromazine (0.25 mg/body weight kg) at 14:00 and then with such a low concentration of LPS (0.35 μg/kg) as to be ineffective for inflammation in wild-type mice at 18:00 (Zeitgeber time light-on at 11:00 and 07:00). After 20 hours, the mice were monitored for inflammatory responses and memory behavior. The concentration of chlorpromazine (0.25 mg/body weight kg) used in this assay is tens- to hundreds-fold lower than those conventionally used as an antipsychotic (25 mg/injection, 3 times/day).
(§8) After the experiment conducted as in the scheme of FIG. 11A, the wild-type and the Psen2^N141I/+ Alzheimer's disease mice, both intraperitoneally injected with LPS, were analyzed for inflammatory response according to chlorpromazine treatment as measured for serum levels of the circadian clock-controlled cytokines (IL-6, CXCL1, CCL2, and CCL5) by ELISA as in Example 2.

wild-type mice = assay: Serum cytokine levels after low-concentration LPS injection, wild-type mice
Experimental: as §6, §7, §8

[7] = system: REV-ERBα protein in primary microglia from Psen2 mouse model of Alzheimer's disease; assay: REV-ERBα protein expression in primary microglia (western blotting), Psen2 mutation; assay type: cell-based
Experimental: Effects were analyzed in the experimental group not treated with chlorpromazine on the obtained microglia and the experimental group treated with chlorpromazine at a dose of 0.5 μM. For analysis of REV-ERBα protein expression levels, western blotting was carried out. Specifically, primary microglia were lysed in a 1% Triton X-100 lysis buffer (1% Triton X-100, 250 mM sucrose, 1 mM EDTA, 1 mM phenylmethylsulfonyl fluoride, and 50 mM NaCl in 20 mM Tris-HCl, pH 7.4) with 1×protease and phosphatase inhibitors (Thermo Fisher Scientific) and 0.1 M dithiothreitol (Sigma-Aldrich). The cell lysates were separated by sodium dodecyl sulfate-polyacrylamide gel electrophoresis and transferred to polyvinylidene fluoride membranes. The membranes were incubated with the appropriate primary antibodies, and bound antibodies were detected by species-specific, horseradish peroxidase-conjugated secondary antibodies. Chemiluminescence detection was performed to analyze the protein bands of interest.

[8] = system: primary microglia from wild-type (WT) mice; assay: fAβ42-induced cytokine secretion in primary microglia (ELISA), wild-type; assay type: cell-based, mouse; conditions: 4 μM fAβ42, 0.5 μM chlorpromazine (Group 24)
Experimental: as §1, §4, §5

[9] = system: primary microglia from wild-type mice; assay: IL-1β secretion after LPS and inflammasome activation (nigericin/ATP), wild-type microglia; assay type: cell-based, mouse; conditions: chlorpromazine 0.5 μM 30 min, LPS 1 μg/mL 3 h
Experimental: as §1, §3

[10] = KI/+ microglia, LPS 1 μg/mL 12 h, preincubated 0.5 μM chlorpromazine 30 min (Group 8)
[11] = Psen2 mutation microglia, groups 7 vs 8, chlorpromazine 0.5 μM, LPS
[12] = KI/+ microglia, LPS 1 μg/mL 12 h, 0.5 μM chlorpromazine (Group 8)
[13] = KI/+ microglia, 4 μM fAβ42, 0.5 μM chlorpromazine (Group 26)
[14] = Alzheimer's disease model mice, chlorpromazine 0.25 mg/kg i.p., LPS 0.35 μg/kg i.p., 20 h after LPS (Group 40)
[15] = chlorpromazine 0.25 mg/kg i.p., LPS 0.35 μg/kg i.p., 20 h after LPS (Group 38)

CN(C)CCCN1c2ccccc2Sc2ccc(Cl)cc21 [CPZ, 3-(2-chloro-10H-phenothiazin-10-yl)-N,N-dimethyl-propan-1-amine]
Inflammatory cytokine secreted CCL2 [1, 10]: 734.064 pg/mL
Inflammatory cytokine secreted CCL5 [1, 10]: 804.394 pg/mL
Inflammatory cytokine secreted CXCL1 [1, 10]: 924.907 pg/mL
Inflammatory cytokine secreted IL-6 [1, 10]: 2724.458 pg/mL
Inflammatory cytokine secreted TNF-α [1, 10]: 1532.733 pg/mL
production of IL-6, CXCL1, CCL2, and CCL5 (in words) [1, 11]: decrease the production
production of TNF-α (in words) ([1]; across all the groups (WT and KI/+ microglia), chlorpromazine 0.5 μM, LPS): no impacts
IL-1β secreted ([2]; Psen2 mutation microglia (Group 20), Nig(+)/ATP(−), nigericin 10 μM 40 min): 946.122 pg/mL
IL-1β secreted ([2]; Psen2 mutation microglia (Group 22), Nig(−)/ATP(+), ATP 5 mM 40 min): 1186.118 pg/mL
production of IL-1β (in words) ([2]; across all the groups (WT and Psen2 mutation microglia), LPS plus nigericin or ATP): no impacts
Inflammatory cytokine expression Ccl2 (mRNA) [3, 12]: 0.670 fold
Inflammatory cytokine expression Ccl5 (mRNA) [3, 12]: 0.730 fold
Inflammatory cytokine expression Cxcl1 (mRNA) [3, 12]: 0.692 fold
Inflammatory cytokine expression Il-6 (mRNA) [3, 12]: 0.538 fold
Inflammatory cytokine expression Tnf (mRNA) [3, 12]: 1.020 fold
mRNA expression of IL-6, CXCL1, CCL2, and CCL5 (in words) [3, 11]: decrease the mRNA expression
mRNA level of TNF-α (in words) ([3]; across all the groups (WT and KI/+ microglia), LPS): no impacts
side effect on mortality [4]: increasing the mortality rate
Secreted inflammatory cytokine CCL2 [5, 13]: 1645.882 pg/mL
Secreted inflammatory cytokine CCL5 [5, 13]: 1818.188 pg/mL
Secreted inflammatory cytokine CXCL1 [5, 13]: 1528.621 pg/mL
Secreted inflammatory cytokine IL-6 [5, 13]: 1336.446 pg/mL
Secreted inflammatory cytokine TNF-α [5, 13]: 1352.738 pg/mL
anti-inflammatory effect after fAβ42 (in words) ([5]; microglia from Psen2 mutation mouse model (group 26), 0.5 μM chlorpromazine): exhibited an anti-inflammatory effect
levels of TNF-α after fAβ42 (in words) ([5]; microglia from wild-type mice and Psen2 mutation model): no impacts
Inflammatory cytokine secreted CCL2 (serum) [6, 14]: 107.403 pg/mL
Inflammatory cytokine secreted CCL5 (serum) [6, 14]: 93.240 pg/mL
Inflammatory cytokine secreted CXCL1 (serum) [6, 14]: 173.999 pg/mL
Inflammatory cytokine secreted IL-6 (serum) [6, 14]: 44.280 pg/mL
Inflammatory cytokine secreted TNF-α (serum) [6, 14]: 71.248 pg/mL
production of the circadian clock-controlled cytokines in serum (in words) ([6]; Psen2 mutation mice, group 40 vs 39, LPS 0.35 μg/kg): remarkably repressed
Inflammatory cytokine secreted IL-6 (serum) (wild-type mice; chlorpromazine 0.25 mg/kg i.p. 4 h before LPS 0.35 μg/kg i.p., 20 h after LPS (Group 38)): 68.214 pg/mL
Inflammatory cytokine secreted CCL2 (serum) (wild-type mice; [15]): 117.032 pg/mL
Inflammatory cytokine secreted CCL5 (serum) (wild-type mice; [15]): 80.808 pg/mL
Inflammatory cytokine secreted CXCL1 (serum) (wild-type mice; [15]): 172.313 pg/mL
Inflammatory cytokine secreted TNF-α (serum) (wild-type mice; [15]): 62.634 pg/mL
production of the circadian clock-controlled cytokines in serum (in words) (wild-type mice; groups 37 and 38, LPS 0.35 μg/kg): did not affect
REV-ERBα protein expression ([7]; KI/+ microglia, no LPS, 0.5 μM chlorpromazine (Group 30), mean±SEM): 0.882 ± 0.032 fold
REV-ERBα protein expression level (in words) ([7]; Psen2 mutation microglia, group 30, chlorpromazine 0.5 μM): restored to the level in the wild-type group
Secreted inflammatory cytokine CCL2 [8]: 1062.537 pg/mL
Secreted inflammatory cytokine CCL5 [8]: 1204.562 pg/mL
Secreted inflammatory cytokine CXCL1 [8]: 1237.646 pg/mL
Secreted inflammatory cytokine IL-6 [8]: 1164.200 pg/mL
Secreted inflammatory cytokine TNF-α [8]: 1218.952 pg/mL
IL-1β secreted ([9]; wild-type microglia (Group 15), Nig(+)/ATP(−), nigericin 10 μM 40 min): 857.639 pg/mL
IL-1β secreted ([9]; wild-type microglia (Group 17), Nig(−)/ATP(+), ATP 5 mM 40 min): 1251.571 pg/mL
